In assay [1] the target is 5-hydroxytryptamine receptor 2A (Rattus norvegicus, UniProt P14842). In words: […] measured for 5-hydroxytryptamine 2A receptor using [3H]-MDL- 100,907 as radioligand in rat cortical homogenates. The class given is tissue-based.
The target of assay [2] is 5-hydroxytryptamine receptor 2B (Homo sapiens, UniProt P41595). In words: Binding activity against cloned human 5-hydroxytryptamine 2B receptor using [3H]5-HT as the radioligand.
For assay [3], the target named is T1, 5-hydroxytryptamine receptor 2C (Homo sapiens, UniProt P28335).
T1 sequence (P28335 whole entry): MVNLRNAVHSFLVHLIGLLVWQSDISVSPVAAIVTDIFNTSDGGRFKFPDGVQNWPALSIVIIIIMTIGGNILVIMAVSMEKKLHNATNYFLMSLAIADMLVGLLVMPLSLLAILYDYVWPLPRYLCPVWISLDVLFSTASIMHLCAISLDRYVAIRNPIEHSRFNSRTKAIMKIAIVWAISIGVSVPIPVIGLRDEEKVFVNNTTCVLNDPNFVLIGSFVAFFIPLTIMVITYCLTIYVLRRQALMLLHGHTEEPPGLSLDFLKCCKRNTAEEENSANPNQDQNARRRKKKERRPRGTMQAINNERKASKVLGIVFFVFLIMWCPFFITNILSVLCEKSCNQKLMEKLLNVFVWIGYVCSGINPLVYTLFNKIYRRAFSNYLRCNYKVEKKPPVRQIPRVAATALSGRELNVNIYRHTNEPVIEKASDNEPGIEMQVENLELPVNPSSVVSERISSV
In words: Binding activity against cloned human 5-hydroxytryptamine 2C receptor using [125I]DOI as the radioligand.

The species named for assay [4] is Rattus norvegicus. The experiment in a line: Drug discrimination studies in rats(12) expressed as ED50 value. The class given is functional.
The species named for assay [5] is Rattus norvegicus. In words: Drug discrimination studies in rats(7-15) expressed as ED50 value. The class given is functional.
In assay [6] the target is 5-hydroxytryptamine receptor 2A (Homo sapiens, UniProt P28223). In words: Binding activity against cloned human 5-hydroxytryptamine 2A receptor using [125I]DOI as the radioligand.
For assay [7], the species on record is Rattus norvegicus. In words: Drug discrimination studies in rats(16-19) expressed as ED50 value. The class given is functional.
The species named for assay [8] is Rattus norvegicus. In words: Drug discrimination studies in rats(9-12) expressed as ED50 value. The class given is functional.
The species entered for assay [9] is Rattus norvegicus. In words: Drug discrimination studies in rats(22) expressed as ED50 values. Type of assay: functional.

For six compounds, Ki and ED50 results are on record in ChEMBL document CHEMBL1131520, “A novel (benzodifuranyl)aminoalkane with extremely potent activity at the 5-HT2A receptor” (J Med Chem, 1998).

5-hydroxytryptamine receptor 2B, sequence (P41595 whole entry): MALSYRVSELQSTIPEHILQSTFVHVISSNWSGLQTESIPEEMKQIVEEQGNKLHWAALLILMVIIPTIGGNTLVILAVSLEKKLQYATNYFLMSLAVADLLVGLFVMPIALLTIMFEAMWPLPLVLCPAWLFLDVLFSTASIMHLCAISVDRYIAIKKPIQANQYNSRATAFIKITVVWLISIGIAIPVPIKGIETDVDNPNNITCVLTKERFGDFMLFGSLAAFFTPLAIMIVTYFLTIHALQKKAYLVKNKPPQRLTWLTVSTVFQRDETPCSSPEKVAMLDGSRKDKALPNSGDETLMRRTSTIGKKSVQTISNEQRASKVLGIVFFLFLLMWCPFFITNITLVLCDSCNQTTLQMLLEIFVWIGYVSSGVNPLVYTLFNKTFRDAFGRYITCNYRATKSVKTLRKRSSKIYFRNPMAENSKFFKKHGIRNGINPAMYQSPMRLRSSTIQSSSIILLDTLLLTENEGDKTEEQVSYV
5-hydroxytryptamine receptor 2A (Rattus norvegicus, UniProt P14842), sequence (P14842 whole entry): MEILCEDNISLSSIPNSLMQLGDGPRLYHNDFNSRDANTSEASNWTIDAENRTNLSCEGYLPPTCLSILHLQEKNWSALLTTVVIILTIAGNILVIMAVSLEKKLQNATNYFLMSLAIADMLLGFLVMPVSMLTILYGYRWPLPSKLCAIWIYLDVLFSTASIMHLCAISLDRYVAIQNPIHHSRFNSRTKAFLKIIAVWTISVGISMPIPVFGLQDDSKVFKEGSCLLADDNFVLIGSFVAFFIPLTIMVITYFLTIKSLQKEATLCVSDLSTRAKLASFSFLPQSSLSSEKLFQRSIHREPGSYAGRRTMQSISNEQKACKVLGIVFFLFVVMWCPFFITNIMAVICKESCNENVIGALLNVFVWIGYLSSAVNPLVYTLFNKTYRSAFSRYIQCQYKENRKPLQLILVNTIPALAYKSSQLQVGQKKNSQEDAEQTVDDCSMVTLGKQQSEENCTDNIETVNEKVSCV
5-hydroxytryptamine receptor 2A (Homo sapiens, UniProt P28223), sequence (P28223 whole entry): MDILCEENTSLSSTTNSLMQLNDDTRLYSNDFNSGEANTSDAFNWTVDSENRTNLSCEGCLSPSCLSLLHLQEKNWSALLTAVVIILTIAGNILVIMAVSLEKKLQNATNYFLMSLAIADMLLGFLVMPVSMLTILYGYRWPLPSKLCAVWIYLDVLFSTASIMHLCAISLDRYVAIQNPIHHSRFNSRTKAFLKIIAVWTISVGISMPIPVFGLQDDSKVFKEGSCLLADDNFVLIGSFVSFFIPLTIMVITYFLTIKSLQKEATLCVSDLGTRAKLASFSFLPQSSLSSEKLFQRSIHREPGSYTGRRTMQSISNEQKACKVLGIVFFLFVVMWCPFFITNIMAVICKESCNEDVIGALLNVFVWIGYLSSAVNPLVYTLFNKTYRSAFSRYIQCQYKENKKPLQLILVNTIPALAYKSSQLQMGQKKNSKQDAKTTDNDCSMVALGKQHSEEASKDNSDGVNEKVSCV

Turning to `CC(N)Cc1c2c(c(Br)c3c1OCC3)OCC2` (configuration not stated), the affinity in assay [1] corresponds to a Ki of 14.8 nM.

Turning to `CC(N)Cc1c2ccoc2c(Br)c2ccoc12` (configuration not stated), the Ki in assay [1] amounted to 0.23 nM.

In the case of `COc1cc(CC(C)N)c(OC)cc1I` (configuration not stated), the Ki in [2] came out at 42.7 nM; in [3] it was 1.82 nM. Besides, the ED50 in the assay filed under Rattus norvegicus [4] was determined as 0.3 µmol/kg.

For `CC(N)Cc1c2c(c(Br)c3c1OCC3)OCC2` (racemic), the 50% effect level in the assay listed under Rattus norvegicus [5] (ED50) was put at a dose of 0.061 µmol/kg.

As to `CC(N)Cc1c2ccoc2c(Br)c2ccoc12` (racemic), the Ki in [6] was 0.04 nM; in assay [2], 0.19 nM; in assay [3] it was 0.02 nM. Moreover, the ED50 in the assay filed under Rattus norvegicus [7] is 0.022 µmol/kg; in the assay listed under Rattus norvegicus [8], 0.039 µmol/kg.

Turning to `CCN(CC)C(=O)[C@@H]1C=C2c3cccc4[nH]cc(c34)C[C@H]2N(C)C1` [LYSERGIDE], it took a dose of 0.04 µmol/kg to reach the 50% effect level in the assay listed under Rattus norvegicus [9] (ED50).
